For data set [1], the system named is fibrinogen. Conditions: rabbit, in vivo.
Method: (§1) Fibrinogen concentration in dilute plasma is inversely proportional to the thrombin clotting of the plasma (S. Borgstrom, Acta Chir. Scand. 90:419 (1945); A. Clauss, Acta Haemat, 17:273 (1957); K. Jacobson, Scand. J. Clin. Lab. Med. 7:7 (1955). Plasma was diluted 1:10 and 200 μL of this solution added to 100 μL (10 units) of bovine thrombin. Clotting time was measured on a clinical fibrometer, and fibrinogen levels determined as mg/dL plasma.
The test system of a further data set is α-2 antiplasmin. Nature of the data set: Antiplasmin assay (plasmin cleavage of S2251) in rabbit plasma during clot lysis experiments. Format: in vivo. Here is the method:
Antiplasmin levels were monitored by the antiplasmin assay (Helena Labs, Beaumont, Tex.). This assay measures inhibition of plasmin cleavage of a chromogenic substrate S2251 (H-D Valyl-Leucyl-L-Lysine-p-nitroanilide dihydrochloride) obtained from Helena Labs. A typical reaction mixture contains 215 μL of 50 mM Tris buffer pH 7.4, 110 mM NaCl, 5 μL rabbit plasma, 15 μL plasmin (1 unit), and 15 μL of substrate S2251 (3.5 mM stock) in a total reaction volume of 250 μL. The generation of p-nitroaniline product is monitored at […].

A further data set has as its system tPA antigen. Nature of the data set: tPA antigen ELISA in rabbit plasma during clot lysis experiments. Format: in vivo. The settings on record: with tPA. Here is the method: Samples of rabbit plasma were assayed by a commercial ELISA assay from American Diagnostic Inc. (ADI), New York, N.Y. Several modifications are made to the ADI protocol, which include using 10 μL of untreated plasma sample to minimize background and spiking the standard curve with 10 μL rabbit plasma to equalize any salt effect that might result. The assay was standardized with mouse C127 cell tPA (Invitron, St. Louis, Mo.).
The tPA antigen levels were monitored hourly to determine if the increase in clot lysis is due to an extended tPA half-life. […] Antigen levels of tPA decreased after infusion is stopped, indicating normal clearance of the exogenous tPA.
(In an ELISA, binding on a coated surface is turned into a signal by an enzyme label.)

For data set [2], the system named is fibrinogen. Kind of data set: Fibrinogen level in rabbit plasma by thrombin clotting time during clot lysis experiments. The settings on record: enhancer peptide dose 0 mg/kg (tPA only).
Method: as §1
Data set [3] deals with jugular vein clot (tPA mediated clot lysis). Nature of the data set: Rabbit jugular vein thrombolysis model II: peptide coinfused with tPA. It counts as in vivo, rabbit (New Zealand White). Conditions: tPA alone 0.125 mg/kg; standard curve 2 conditions (17% background lysis). How it is done:
In a second experiment the enhancer peptide was administered with tPA. […] Clot lysis standard curves were performed for varying doses of tPA from […] mouse cells (Invitron). […] To compare the data, standard curves were established for each procedure. A linear dose dependency is observed with both sets of data. […] The chosen dose of tPA (0.125 mg/kg) for the peptide experiments gave 17% and 27% lysis, respectively, for the two sets of experiments. This dose was chosen as the baseline for the peptide study so that an increase in clot lysis would be observable. Increases in clot lysis were evaluated by two methods. In the first method, fold increases in % clot lysis were calculated as follows: [formula] In the second method, the equivalent dose of tPA necessary to obtain the clot lysis observed with tPA and peptide was extrapolated from the appropriate standard curve. Fold increase in tPA dose was determined as follows: [formula] A dose response study was performed with the peptides using a constant tPA dose (FIG. 5). Three doses are tested: 1.85 mg/kg, 0.185 mg/kg and 0.0185 mg/kg, which correspond to molar ratios of peptide to tPA of 385, 38.5, and 3.85, respectively with weight ratios of enhancer peptide to tPA of 15:1, 1.5:1, and 0.15:1 respectively. […]

Data set [4] deals with isolated clot in the rabbit jugular vein (tPA mediated clot lysis). Nature of the data set: Rabbit jugular vein thrombolysis model I: peptide added during clot formation, then tPA infusion. Conditions: tPA alone 0.125 mg/kg infused over 4 h; standard curve 1 conditions. Format: in vivo, rabbit (New Zealand White). How it is done:
Two independent studies were performed using the rabbit jugular vein thrombolysis model described in D. Collen et al., J. Clin. Invest. 71:368 (1983), with minor modifications. The enhancer peptide was administered during clot formation prior to tPA administration in one set of experiments with the rabbit jugular vein thrombolysis model. The enhancer peptide produced a five-fold increase in the clot lysis obtained from infusion of 0.125 mg tPA/kg, which corresponds to the lysis observed by a six-fold increase in tPA dose.
Clot lysis standard curves were performed for varying doses of tPA from C127 mouse cells (Invitron). […] To compare the data, standard curves were established for each procedure. A linear dose dependency is observed with both sets of data. […] Increases in clot lysis were evaluated by two methods. In the first method, fold increases in % clot lysis were calculated as follows: [formula] […] Fold increase in tPA dose was determined as follows: [formula] […]
An isolated clot was formed in the rabbit jugular vein using bovine thrombin (Calbiochem, San Diego, Calif.) and ^125 I fibrinogen (Amersham, Arlington Heights, Ill.). […] Blood samples were taken every hour from the femoral vein, and clot lysis was measured by comparison of residual radioactivity in the clot at the end of 4 1/2 hours. […]

“And” between values parts separate entries of the source, which are not always exact repeats. Identical values can stand only once. Like-named read-outs stand apart in the source and are kept apart here. Peptide text beside a SMILES is read from it.

`CC[C@H](C)[C@H](NC(=O)[C@H](Cc1ccccc1)NC(=O)[C@@H](NC(=O)[C@H](CC(C)C)NC(=O)[C@H](Cc1ccccc1)NC(=O)[C@@H]1CCCN1C(=O)[C@H](CCCNC(=N)N)NC(=O)[C@H](CC(N)=O)NC(=O)[C@H](C)NC(=O)[C@H](CCCCN)NC(=O)[C@H](Cc1ccccc1)NC(=O)[C@@H](NC(=O)[C@@H](NC(=O)[C@H](CCCNC(=N)N)NC(=O)[C@H](CC(N)=O)NC(=O)[C@@H]1CCCN1C(=O)[C@H](CC(N)=O)NC(=O)[C@H](CC(C)C)NC(=O)[C@H](CO)NC(=O)[C@H](CCCNC(=N)N)NC(=O)CNC(=O)[C@H](C)N)C(C)C)[C@@H](C)O)C(C)C)C(=O)O` [enhancer peptide] (H-AGRSLNPNRVTFKANRPFLVFI-OH): the Fibrinogen levels entry in the data set with fibrinogen [1] is on record as “did not change”. The “Fibrinogen (% of baseline)” value with fibrinogen [1] (0.0185 mg/kg) is on record as 100 % of baseline; with fibrinogen [1] (0.185 mg/kg), 100 +/- 1 % of baseline; in the data set with fibrinogen [1] (1.85 mg/kg), 100 +/- 1 % of baseline; in the data set on fibrinogen [1] (9.25 mg/kg), 91 % of baseline; with fibrinogen [1] (18.5 mg/kg), 91 +/- 13 % of baseline. The α-2 antiplasmin levels result in the data set with α-2 antiplasmin (all rabbit experiments, including those with increased clot lysis from enhancer peptide) was “did not change”. Moreover, the “α-2 Antiplasmin (% of baseline)” value is given as 87 +/- 7 % of baseline in the data set on α-2 antiplasmin (enhancer peptide dose 0.0185 mg/kg, with tPA); 96 +/- 1 % of baseline with α-2 antiplasmin (enhancer peptide dose 0.185 mg/kg, with tPA); 86 +/- 8 % of baseline in the data set on α-2 antiplasmin (enhancer peptide dose 1.85 mg/kg, with tPA); 92 +/- 2 % of baseline with α-2 antiplasmin (enhancer peptide dose 9.25 mg/kg, with tPA). In addition, the “tPA Antigen 30 min. after Infusion” value in the data set with tPA antigen (enhancer peptide dose 0.0185 mg/kg) and with tPA antigen (enhancer peptide dose 0.185 mg/kg) was 0 mg/mL throughout.
For the compound “tPA: tissue plasminogen activator from C127 mouse cells (Invitron Lot #76-001-31395), control tPA for this study”, the “Fibrinogen (% of baseline)” value with fibrinogen [2] was 100 % of baseline. Also, the clot lysis in data set [3] is 27%; in data set [4], 17% and 16 +/- 1%. In the data set on α-2 antiplasmin (enhancer peptide dose 0 mg/kg (tPA only)), the “α-2 Antiplasmin (% of baseline)” value was 94 +/- 2 % of baseline.

The record behind these values is patent publication US5591431A, “Enhancement of clot lysis” (G.D. Searle & Co., priority 1990, dated 1997).
